Test results reported in PubChem BioAssay AID248 (DTP/NCI, 2004).
Several values for one entry are separate records, joined by “and”; a condition that tells them apart may be missing. Identical values can stand only once. Toxic doses and inconclusive results are not listed. No stated cut-off is given here; in the data, active means T/C of 150% or more; inactive means T/C below 125%.

System: L1210 leukemia ip in BDF1 mice, survival T/C
Test: NCI In Vivo Anticancer Drug Screen. Data for tumor model L1210 Leukemia (intraperitoneal) in B6D2F1 (BDF1) mice
Details: endpoint: mean survival time, higher = longer survival
Outline: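 Ratio derived from survival: compound-dosed mice over vehicle-dosed mice, all bearing a transplantable tumor.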

[1] = dose: 30.0 mg/kg/injection, schedule: Q01DX Z (ip), vehicle: saline
[2] = dose: 12.5 mg/kg/injection, schedule: Q01DX009 (ip), vehicle: saline
[3] = dose: 25.0 mg/kg/injection, schedule: Q01DX009 (ip), vehicle: saline
[4] = dose: 25.0 mg/kg/injection, schedule: Q04DX003 (ip), vehicle: saline
[5] = dose: 50.0 mg/kg/injection, schedule: Q01DX009 (ip), vehicle: saline
[6] = dose: 50.0 mg/kg/injection, schedule: Q04DX003 (ip), vehicle: saline
[7] = dose: 100.0 mg/kg/injection, schedule: Q01DX009 (ip), vehicle: Klucel (hydroxypropylcellulose) (HPC)
[8] = dose: 200.0 mg/kg/injection, schedule: Q01DX009 (ip), vehicle: Klucel (hydroxypropylcellulose) (HPC)
[9] = dose: 400.0 mg/kg/injection, schedule: Q01DX009 (ip), vehicle: Klucel (hydroxypropylcellulose) (HPC)
[10] = dose: 15.0 mg/kg/injection, schedule: Q01DX Z (ip), vehicle: saline
[11] = dose: 60.0 mg/kg/injection, schedule: Q01DX Z (ip), vehicle: saline
[12] = dose: 60.0 mg/kg/injection, schedule: Q01DX Z (oral), vehicle: saline
[13] = dose: 120.0 mg/kg/injection, schedule: Q01DX Z (ip), vehicle: saline
[14] = dose: 120.0 mg/kg/injection, schedule: Q01DX Z (oral), vehicle: saline
[15] = dose: 240.0 mg/kg/injection, schedule: Q01DX Z (oral), vehicle: saline
[16] = dose: 480.0 mg/kg/injection, schedule: Q01DX Z (oral), vehicle: saline

Measured: T/C

O=C(NCCCCCCNC(=O)OCc1ccccc1)OCc1ccccc1
inactive: dose: 10.0 mg/kg/injection, schedule: Q01DX Z (ip), vehicle: saline 98 % of control | [1] 96 % of control | dose: 100.0 mg/kg/injection, schedule: Q01DX Z (ip), vehicle: saline 100 % of control | dose: 300.0 mg/kg/injection, schedule: Q01DX Z (ip), vehicle: saline 98 % of control

CCN(CC)CCC(=O)c1cccc2c1OC(C)(C)C2
inactive: [2] 100 % of control and 105 % of control | dose: 12.5 mg/kg/injection, schedule: Q04DX003 (ip), vehicle: saline 103 % of control | [3] 93 % of control and 100 % of control | [4] 97 % of control | [5] 93 % of control and 102 % of control | [6] 103 % of control

CCCCCCCC(O)CCCC (stereo not given)
inactive: [7] 100 % of control | dose: 100.0 mg/kg/injection, schedule: Q04DX003 (ip), vehicle: Klucel (hydroxypropylcellulose) (HPC) 95 % of control | [8] 104 % of control | dose: 200.0 mg/kg/injection, schedule: Q04DX003 (ip), vehicle: Klucel (hydroxypropylcellulose) (HPC) 103 % of control | [9] 104 % of control | dose: 400.0 mg/kg/injection, schedule: Q04DX003 (ip), vehicle: Klucel (hydroxypropylcellulose) (HPC) 98 % of control

Brc1ccc(Br)c2cnccc12
inactive: dose: 100.0 mg/kg/injection, schedule: Q01DX001 (ip), vehicle: other 93 % of control | dose: 200.0 mg/kg/injection, schedule: Q01DX001 (ip), vehicle: other 106 % of control | dose: 400.0 mg/kg/injection, schedule: Q01DX001 (ip), vehicle: other 104 % of control

CCCCCCCCCCCCC/C=N\N=C(N)N
inactive: [10] 96 % of control | [1] 89 % of control | [11] 89 % of control | [12] 98 % of control | [13] 96 % of control | [14] 101 % of control | [15] 101 % of control | [16] 98 % of control

C1CCC2C(C1)C2(N1CCCC1)N1CCCC1 (stereo not given)
inactive: dose: 6.25 mg/kg/injection, schedule: Q01DX009 (ip), vehicle: Klucel (hydroxypropylcellulose) (HPC) 101 % of control | dose: 12.5 mg/kg/injection, schedule: Q01DX009 (ip), vehicle: Klucel (hydroxypropylcellulose) (HPC) 100 % of control | dose: 12.5 mg/kg/injection, schedule: Q04DX003 (ip), vehicle: Klucel (hydroxypropylcellulose) (HPC) 98 % of control | dose: 25.0 mg/kg/injection, schedule: Q01DX009 (ip), vehicle: Klucel (hydroxypropylcellulose) (HPC) 93 % of control and 92 % of control | dose: 25.0 mg/kg/injection, schedule: Q04DX003 (ip), vehicle: Klucel (hydroxypropylcellulose) (HPC) 98 % of control | dose: 50.0 mg/kg/injection, schedule: Q04DX003 (ip), vehicle: Klucel (hydroxypropylcellulose) (HPC) 94 % of control

NC(=O)c1ccccc1NC(=O)Nc1ccccc1F
inactive: [7] 105 % of control | [8] 107 % of control | [9] 100 % of control

NC1=NC(=S)CS1
inactive: dose: 75.0 mg/kg/injection, schedule: Q04DX003 (ip), vehicle: saline 97 % of control | dose: 150.0 mg/kg/injection, schedule: Q04DX003 (ip), vehicle: saline 94 % of control | dose: 300.0 mg/kg/injection, schedule: Q04DX003 (ip), vehicle: saline 92 % of control

O=C(c1ccccc1)C1(Br)CCC1
inactive: dose: 100.0 mg/kg/injection, schedule: Q01DX009 (ip), vehicle: saline sonified 101 % of control | dose: 200.0 mg/kg/injection, schedule: Q01DX009 (ip), vehicle: saline sonified 97 % of control | dose: 400.0 mg/kg/injection, schedule: Q01DX009 (ip), vehicle: saline sonified 101 % of control

COc1ccccc1/C=N\NC(=O)C1CC1
inactive: dose: 15.0 mg/kg/injection, schedule: Q01DX Z (ip), vehicle: carboxymethylcellulose (CMC) 102 % of control | dose: 30.0 mg/kg/injection, schedule: Q01DX Z (ip), vehicle: carboxymethylcellulose (CMC) 97 % of control | dose: 60.0 mg/kg/injection, schedule: Q01DX Z (ip), vehicle: carboxymethylcellulose (CMC) 97 % of control and 101 % of control | dose: 120.0 mg/kg/injection, schedule: Q01DX Z (ip), vehicle: carboxymethylcellulose (CMC) 101 % of control and 102 % of control | dose: 240.0 mg/kg/injection, schedule: Q01DX Z (ip), vehicle: carboxymethylcellulose (CMC) 98 % of control | dose: 480.0 mg/kg/injection, schedule: Q01DX Z (ip), vehicle: carboxymethylcellulose (CMC) 101 % of control | dose: 480.0 mg/kg/injection, schedule: Q01DX Z (oral), vehicle: carboxymethylcellulose (CMC) 106 % of control | dose: 960.0 mg/kg/injection, schedule: Q01DX Z (oral), vehicle: carboxymethylcellulose (CMC) 93 % of control

CCN(CC)CCc1ccccn1
inactive: [2] 98 % of control | [3] 100 % of control | [4] 106 % of control | [5] 100 % of control | [6] 103 % of control

CCCCCC/C=N\N=C(N)N
inactive: [10] 97 % of control | [1] 97 % of control | [11] 102 % of control | [12] 100 % of control | [13] 88 % of control | [14] 98 % of control | [15] 91 % of control | [16] 98 % of control

N=c1c2ncn(Cc3cccc(C(F)(F)F)c3)c2ncn1O
inactive: dose: 0.78 mg/kg/injection, schedule: Q01DX009 (ip), vehicle: Klucel (hydroxypropylcellulose) (HPC) 104 % of control | dose: 1.56 mg/kg/injection, schedule: Q01DX009 (ip), vehicle: Klucel (hydroxypropylcellulose) (HPC) 92 % of control | dose: 1.56 mg/kg/injection, schedule: Q04DX003 (ip), vehicle: Klucel (hydroxypropylcellulose) (HPC) 92 % of control | dose: 3.12 mg/kg/injection, schedule: Q01DX009 (ip), vehicle: Klucel (hydroxypropylcellulose) (HPC) 95 % of control | dose: 3.12 mg/kg/injection, schedule: Q04DX003 (ip), vehicle: Klucel (hydroxypropylcellulose) (HPC) 102 % of control

O=c1oc(Cl)c(Cl)c(Cl)c1Cl
inactive: dose: 2.2 mg/kg/injection, schedule: Q01DX Z (ip), vehicle: methylcellulose (MC) 93 % of control

COc1ccc2nc3cc(Cl)ccc3c(NCCNCCNCCNc3c4ccc(Cl)cc4nc4ccc(OC)cc34)c2c1
inactive: dose: 6.25 mg/kg/injection, schedule: Q01DX009 (ip), vehicle: saline with Tween-80 100 % of control | dose: 12.5 mg/kg/injection, schedule: Q01DX009 (ip), vehicle: saline with Tween-80 91 % of control | dose: 25.0 mg/kg/injection, schedule: Q01DX009 (ip), vehicle: saline with Tween-80 101 % of control | dose: 100.0 mg/kg/injection, schedule: Q01DX009 (ip), vehicle: saline with Tween-80 107 % of control

Cn1cnc(N)c1S(=O)(=O)Nc1cccc2ccccc12
inactive: dose: 100.0 mg/kg/injection, schedule: Q04DX003 (ip), vehicle: other 100 % of control | dose: 200.0 mg/kg/injection, schedule: Q04DX003 (ip), vehicle: other 102 % of control | dose: 400.0 mg/kg/injection, schedule: Q04DX003 (ip), vehicle: other 101 % of control

CCCCCCCCC(=O)N1CCN(C)CC1
inactive: dose: 100.0 mg/kg/injection, schedule: Q04DX002 (ip), vehicle: saline 103 % of control

O=C(N(CCc1ccc(O)cc1)Cc1ccc2c(c1)OCO2)C(F)(F)F
inactive: dose: 100.0 mg/kg/injection, schedule: Q04DX003 (ip), vehicle: gum acacia 91 % of control | dose: 200.0 mg/kg/injection, schedule: Q04DX003 (ip), vehicle: gum acacia 91 % of control | dose: 400.0 mg/kg/injection, schedule: Q04DX003 (ip), vehicle: gum acacia 88 % of control
